Laboratory results as given in patent US10780074B2, “Compounds and uses thereof” (Sunovion Pharmaceuticals Inc., priority 2017, dated 2020).
Where a name gives a salt, the structure may show the parent alone.

system: behaviors of compound-treated mice; experiment: Neuropharmacological Assay (SmartCube); type: in vivo; settings: Mus musculus, ip, 0.25 h, dose having 50% or more total activity in SmartCube, i.p., read-out: MED (minimal effective dose)
Outline: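 Mice dosed i.p. 15 min before testing, with compound in N-methyl-2-pyrrolidone/PEG/propylene glycol, were video-recorded and algorithmically compared with reference-drug behavioral signatures. This gave class-match probabilities (antidepressant, anxiolytic, etc.) at the most efficacious of 3 doses. MED was defined as the dose with ≥50% total activity, usually tested across 0.3–30 mpk.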

Row | Structure (SMILES) | minimal effective dose
1 | CNC[C@@H]1OCc2c(-c3cccnc3)cccc21 [Compound 33, (R)—N-Methyl-1-(4-(pyridin-3-yl)-1,3-dihydroisobenzofuran-1-yl)methanamine hydrochloride salt] | 10 to 30 mg/kg
2 | CNC[C@H]1OCc2c(-c3cccnc3)cccc21 [Compound 34, (S)—N-Methyl-1-(4-(pyridin-3-yl)-1,3-dihydroisobenzofuran-1-yl)methanamine hydrochloride salt] | ≤ 3 mg/kg
3 | NC[C@@H]1OCc2c(-c3cccnc3)cccc21 [Compound 35, (R)-(4-(Pyridin-3-yl)-1,3-dihydroisobenzofuran-1-yl)methanamine hydrochloride] | 3 to 10 mg/kg
4 | NC[C@H]1OCc2c(-c3cccnc3)cccc21 [Compound 36, (S)-(4-(Pyridin-3-yl)-1,3-dihydroisobenzofuran-1-yl)methanamine hydrochloride] | ≤ 3 mg/kg
5 | CNC[C@H]1OCc2c(-c3ccncc3)cccc21 [Compound 40, (S)—N-Methyl-1-(4-(pyridin-4-yl)-1,3-dihydroisobenzofuran-1-yl)methanamine hydrochloride salt] | ≤ 3 mg/kg
6 | NC[C@@H]1OCCc2ccc(-c3ccncc3)cc21 [Compound 47, (R)-(7-(pyridin-4-yl)isochroman-1-yl)methanamine hydrochloride] | 3 to 10 mg/kg
7 | NC[C@H]1OCCc2ccc(-c3ccncc3)cc21 [Compound 48, (S)-(7-(pyridin-4-yl)isochroman-1-yl)methanamine hydrochloride] | 3 to 10 mg/kg
8 | CNC[C@@H]1OCCc2ccc(-c3ccncc3)cc21 [Compound 49, (R)—N-Methyl-1-(7-(pyridin-4-yl)isochroman-1-yl)methanamine hydrochloride] | ≤ 3 mg/kg
9 | CNC[C@H]1OCCc2ccc(-c3ccncc3)cc21 [Compound 50, (S)—N-Methyl-1-(7-(pyridin-4-yl)isochroman-1-yl)methanamine hydrochloride] | 3 to 10 mg/kg
10 | CCNCC1OCCc2c(-c3ccncc3)cccc21 (stereo not drawn) [Compound 51, N-((5-(Pyridin-4-yl)isochroman-1-yl)methyl)ethanamine hydrochloride salt] | 3 to 10 mg/kg
11 | CNCC1OCCc2c(-c3cncs3)cccc21 (stereo not drawn) [Compound 52, N-Methyl-1-(5-(thiazol-5-yl)isochroman-1-yl)methanamine hydrochloride] | 3 to 10 mg/kg
12 | CNCC1OCCc2c(-c3ccncn3)cccc21 (stereo not drawn) [Compound 53, N-Methyl-1-(5-(pyrimidin-4-yl)isochroman-1-yl)methanamine hydrochloride salt] | 3 to 10 mg/kg

same assay, conditions: i.p. 15 min before behavioral test, most efficacious dose(s) of 3 doses

Row | Structure (SMILES) | AD: ADHD (probability that activity matches class) | AG: analgesic (probability that activity matches class) | AX: anxiolytic (probability that activity matches class) | CE: cognitive enhancer (probability that activity matches class) | DP: anti-depressant (probability that activity matches class) | MS: mood stabilizer (probability that activity matches class) | PS: anti-psychotic (probability that activity matches class) | SD: sedative hypnotic (probability that activity matches class) | UN: uncharacterized CNS activity (probability that activity matches class)
13 | CNC[C@@H]1OCc2c(-c3cccnc3)cccc21 [Compound 33, (R)—N-Methyl-1-(4-(pyridin-3-yl)-1,3-dihydroisobenzofuran-1-yl)methanamine hydrochloride salt] | + (LOQ ≤ + <5%) | + (LOQ ≤ + <5%) | ++ (5% ≤ ++ <25%) | + (LOQ ≤ + <5%) | ++++ (50% ≤ ++++) | + (LOQ ≤ + <5%) | + (LOQ ≤ + <5%) | + (LOQ ≤ + <5%) | + (LOQ ≤ + <5%)
14 | CNC[C@H]1OCc2c(-c3cccnc3)cccc21 [Compound 34, (S)—N-Methyl-1-(4-(pyridin-3-yl)-1,3-dihydroisobenzofuran-1-yl)methanamine hydrochloride salt] | + (LOQ ≤ + <5%) | + (LOQ ≤ + <5%) | ++ (5% ≤ ++ <25%) | + (LOQ ≤ + <5%) | ++++ (50% ≤ ++++) | ++ (5% ≤ ++ <25%) | + (LOQ ≤ + <5%) | + (LOQ ≤ + <5%) | + (LOQ ≤ + <5%)
15 | NC[C@@H]1OCc2c(-c3cccnc3)cccc21 [Compound 35, (R)-(4-(Pyridin-3-yl)-1,3-dihydroisobenzofuran-1-yl)methanamine hydrochloride] | ++ (5% ≤ ++ <25%) | + (LOQ ≤ + <5%) | ++ (5% ≤ ++ <25%) | + (LOQ ≤ + <5%) | ++++ (50% ≤ ++++) | + (LOQ ≤ + <5%) | + (LOQ ≤ + <5%) | + (LOQ ≤ + <5%) | + (LOQ ≤ + <5%)
16 | NC[C@H]1OCc2c(-c3cccnc3)cccc21 [Compound 36, (S)-(4-(Pyridin-3-yl)-1,3-dihydroisobenzofuran-1-yl)methanamine hydrochloride] | ++ (5% ≤ ++ <25%) | + (LOQ ≤ + <5%) | + (LOQ ≤ + <5%) | ++ (5% ≤ ++ <25%) | ++++ (50% ≤ ++++) | + (LOQ ≤ + <5%) | + (LOQ ≤ + <5%) | + (LOQ ≤ + <5%) | + (LOQ ≤ + <5%)
17 | CNC[C@H]1OCc2c(-c3ccncc3)cccc21 [Compound 40, (S)—N-Methyl-1-(4-(pyridin-4-yl)-1,3-dihydroisobenzofuran-1-yl)methanamine hydrochloride salt] | ++ (5% ≤ ++ <25%) | ++++ (50% ≤ ++++) | ++ (5% ≤ ++ <25%) | ++ (5% ≤ ++ <25%) | ++++ (50% ≤ ++++) | + (LOQ ≤ + <5%) | + (LOQ ≤ + <5%) | + (LOQ ≤ + <5%) | + (LOQ ≤ + <5%)
18 | NC[C@@H]1OCCc2ccc(-c3ccncc3)cc21 [Compound 47, (R)-(7-(pyridin-4-yl)isochroman-1-yl)methanamine hydrochloride] | + (LOQ ≤ + <5%) | + (LOQ ≤ + <5%) | ++ (5% ≤ ++ <25%) | + (LOQ ≤ + <5%) | ++++ (50% ≤ ++++) | + (LOQ ≤ + <5%) | ++ (5% ≤ ++ <25%) | + (LOQ ≤ + <5%) | + (LOQ ≤ + <5%)
19 | NC[C@H]1OCCc2ccc(-c3ccncc3)cc21 [Compound 48, (S)-(7-(pyridin-4-yl)isochroman-1-yl)methanamine hydrochloride] | + (LOQ ≤ + <5%) | + (LOQ ≤ + <5%) | ++ (5% ≤ ++ <25%) | ++ (5% ≤ ++ <25%) | + (LOQ ≤ + <5%) | + (LOQ ≤ + <5%) | ++ (5% ≤ ++ <25%) | +++ (25% ≤ +++ <50%) | +++ (25% ≤ +++ <50%)
20 | CNC[C@@H]1OCCc2ccc(-c3ccncc3)cc21 [Compound 49, (R)—N-Methyl-1-(7-(pyridin-4-yl)isochroman-1-yl)methanamine hydrochloride] | + (LOQ ≤ + <5%) | ++ (5% ≤ ++ <25%) | ++ (5% ≤ ++ <25%) | ++ (5% ≤ ++ <25%) | ++ (5% ≤ ++ <25%) | + (LOQ ≤ + <5%) | ++ (5% ≤ ++ <25%) | + (LOQ ≤ + <5%) | ++++ (50% ≤ ++++)
21 | CNC[C@H]1OCCc2ccc(-c3ccncc3)cc21 [Compound 50, (S)—N-Methyl-1-(7-(pyridin-4-yl)isochroman-1-yl)methanamine hydrochloride] | + (LOQ ≤ + <5%) | + (LOQ ≤ + <5%) | ++ (5% ≤ ++ <25%) | ++ (5% ≤ ++ <25%) | ++ (5% ≤ ++ <25%) | + (LOQ ≤ + <5%) | + (LOQ ≤ + <5%) | + (LOQ ≤ + <5%) | ++++ (50% ≤ ++++)
22 | CCNCC1OCCc2c(-c3ccncc3)cccc21 (stereo not drawn) [Compound 51, N-((5-(Pyridin-4-yl)isochroman-1-yl)methyl)ethanamine hydrochloride salt] | + (LOQ ≤ + <5%) | + (LOQ ≤ + <5%) | + (LOQ ≤ + <5%) | + (LOQ ≤ + <5%) | ++++ (50% ≤ ++++) | + (LOQ ≤ + <5%) | ++ (5% ≤ ++ <25%) | ++ (5% ≤ ++ <25%) | + (LOQ ≤ + <5%)
23 | CNCC1OCCc2c(-c3cncs3)cccc21 (stereo not drawn) [Compound 52, N-Methyl-1-(5-(thiazol-5-yl)isochroman-1-yl)methanamine hydrochloride] | + (LOQ ≤ + <5%) | + (LOQ ≤ + <5%) | + (LOQ ≤ + <5%) | + (LOQ ≤ + <5%) | ++++ (50% ≤ ++++) | + (LOQ ≤ + <5%) | + (LOQ ≤ + <5%) | + (LOQ ≤ + <5%) | ++ (5% ≤ ++ <25%)
24 | CNCC1OCCc2c(-c3ccncn3)cccc21 (stereo not drawn) [Compound 53, N-Methyl-1-(5-(pyrimidin-4-yl)isochroman-1-yl)methanamine hydrochloride salt] | ++ (5% ≤ ++ <25%) | + (LOQ ≤ + <5%) | ++ (5% ≤ ++ <25%) | + (LOQ ≤ + <5%) | ++++ (50% ≤ ++++) | + (LOQ ≤ + <5%) | + (LOQ ≤ + <5%) | + (LOQ ≤ + <5%) | + (LOQ ≤ + <5%)
